According to PubChem BioAssay (NCI):
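Compound exposure: 48 hours, 5 concentrations, 96-well plates. TGI: total growth inhibition.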

Tests used:
Test in all cases: growth of human tumour cells (NCI), 48 h
SF-295 CNS = system: SF-295 CNS
SF-268 CNS = system: SF-268 CNS
NCI-H23 lung = system: NCI-H23 lung
COLO 205 colon = system: COLO 205 colon
SF-539 CNS = system: SF-539 CNS
OVCAR-4 ovarian = system: OVCAR-4 ovarian
HCT-116 colon = system: HCT-116 colon
LOX IMVI melanoma = system: LOX IMVI melanoma
DMS 114 small cell lung = system: DMS 114 small cell lung
SNB-78 CNS = system: SNB-78 CNS

Row | SMILES | TGI (SF-295 CNS) | TGI (SF-268 CNS) | TGI (NCI-H23 lung) | TGI (COLO 205 colon) | TGI (SF-539 CNS) | TGI (OVCAR-4 ovarian) | TGI (HCT-116 colon) | TGI (LOX IMVI melanoma) | TGI (DMS 114 small cell lung) | TGI (SNB-78 CNS)
1 | CO/N=C/c1cc(OC)c(OC)c(OC)c1 | > 100 µM | > 100 µM | > 100 µM | > 100 µM | > 100 µM | > 100 µM | > 100 µM | > 100 µM | > 100 µM | > 100 µM
2 | CCOc1ccccc1C=C1c2ccccc2C(=O)c2ccccc21 | > 100 µM | > 100 µM | > 100 µM | 17.4 µM | 5.22 µM | > 100 µM | 29.5 µM | > 100 µM | 15.9 µM | > 100 µM
3 | CC(CCC=O)CCOCc1ccccc1 (stereo not given) | > 100 µM | > 100 µM | > 100 µM | > 100 µM | > 100 µM | > 100 µM | > 100 µM | > 91.2 µM | > 100 µM | > 100 µM
